Data: patent US6949558B2, “Enhancement of taxane-based chemotherapy by a CDK1 antagonist” (Yale University, priority 2001, dated 2005)
Numbered stars: 1 amine (or outer) side, 2 acyl side, 3 side chain; on linkers, the order of the positions; unused ones are H or OH. Bridge positions count the residues as written; N and C are the ends. Square brackets hold non-standard residues; d marks the D form. Peptide text beside a SMILES is read from it. I, II: the chains in the order shown. * marks the point of attachment. Actinocin(9to1) = Cc1c2oc3c(C)ccc(C(=O)[*:1])c3nc-2c(C(=O)[*:2])c(N)c1=O; NMeV = CN[C@H](C(=O)O)C(C)C; Cbz = O=C(OCc1ccccc1)*; Sar = CNCC(=O)O; CH2F = FC*

How the values were obtained:
Assay type in all cases: cell-based, human
HeLa cells = experiment: Apoptosis by DNA content analysis and flow cytometry in HeLa cells
[1] = tested on: survivin expression in MCF-7 cells; experiment: Survivin expression by Western blotting in MCF-7 cells; settings: for effect on the increase in survivin expression mediated by adriamycin, taxol or 50 J/m^2 UVB: preincubation with cycloheximide 2 mg/ml or actinomycin D 1 μg/ml
Description: (§1) Cell Cultures, Proteins and Antibodies: Breast carcinoma MCF-7 and cervical carcinoma HeLa cells (American Type Culture Collection, Manassas, Va.) were maintained in culture according to the manufacturer's specifications. For treatment with genotoxic agents, HeLa or MCF-7 cells were incubated with vehicle (DMSO) or taxol (2 μM, Sigma Chemical Co., St. Louis, Mo.), adriamycin (100 nM, Sigma), cis-platin (3 μM, Sigma) or subjected to ultraviolet B (UVB) irradiation at 50 or 300 J/m^2. In some experiments, HeLa or MCF-7 treated with taxol, adriamycin or UVB as described above were incubated with inhibitors of transcription (actinomycin D, 1 μg/ml) or translation (cycloheximide, 2 mg/ml) before determination of protein expression by Western blotting. […] A replication-deficient adenovirus encoding wild type survivin (pAd-Survivin) or control encoding Green Fluorescence Protein (pAd-GFP) was generated using the pAd-Easy system as described previously (M. Mesri et al. (2001) J. Clin. Invest. 108: 981-90), and propagated in HEK293 cells with purification by CsCl banding. […] Antibodies to p34^cdc2 or bcl-2 were obtained from Pharmingen (San Diego, Calif.) and R&D, respectively. An antibody to β-actin was from Sigma and antibodies to MPM-2 mitotic phosphoproteins was from Upstate Biotechnology (Lake Placid, N.Y.).
(§2) In some experiments, total RNA was extracted from MCF-7 cells at various time intervals after adriamycin treatment, and hybridized with 32 P-labeled survivin cDNA as described previously. Radioactive bands were detected by autoradiography. […] In other experiments, samples were transferred to nylon membranes and analyzed by Western blotting with antibodies to p34^cdc2 (1 μg/ml), survivin (2 μg/ml), or survivinT34* (5 μg/ml).

[2] = tested on: p34^cdc2 kinase activity (MPM-2 epitope) in HeLa cells; experiment: MPM-2 mitotic phosphoepitope expression (p34^cdc2 kinase activity) in HeLa cells; settings: HeLa
MCF-7 cells = experiment: Apoptosis by DNA content analysis and flow cytometry in MCF-7 cells; settings: taxol 2 μM, adriamycin 100 nM, cis-platin 3 μM (Example 7)
Description: Cervical carcinoma HeLa (functionally inactivated p53) cells or breast carcinoma MCF-7 (wild type p53) cells were plated at 50-60% confluency in C-6 wells. […]
After 4, 8, 16, and 32 hours of incubation, without removing taxol from the wells, purvalanol A was added at three increasing concentrations, 1, 10 and 20 uM (FIG. 1). A control was performed with addition of purvalanol A at the 0-h time point.
The cell populations were harvested at increasing time intervals from the 0-h time point or corresponding to the addition of purvalanol A. Apoptosis was analyzed by DNA content analysis and flow cytometry (DAPI staining).

[3] = tested on: survivin expression in HeLa cells; experiment: Survivin expression by Western blotting in HeLa cells
Description: as §1, §2
In other experiments, HeLa cells were treated with taxol (0.2 μM) for 16 h followed by the DNA damaging agent adriamycin (100 nM, Sigma) or the nucleoside analog 5-Fluorouracil (500 μM, Sigma) for 8-32 h at 37° C. […] In some experiments, HeLa cells were transfected by lipofectamine with a minimal survivin promoter construct upstream of a luciferase reporter gene (pLuc-cyc1.2), as described (F. Li et al. (1998) Nature 396: 580-584). Cells were treated with taxol (2 μM) or UVB (50 J/m2), and analyzed for changes in luciferase activity at increasing time intervals (12-36 h) in a luminometer. Luciferase values were normalized to β-galactosidase expression. […] The immune complexes were separated by SDS gel electrophoresis and analyzed with antibodies to survivin or a-survivinT34* by Western blotting.

[4] = tested on: p34^cdc2 kinase activity (MPM-2 epitope) in MCF-7 cells; experiment: MPM-2 mitotic phosphoepitope expression (p34^cdc2 kinase activity) in MCF-7 cells; settings: vincristine (FIG. 7)
Description: MPM-2 Mitotic Phosphoepitope Expression: For detection of mitotic phosphoproteins (D. D. Vandre et al. (1989) J. Cell Sci. 94: 245-58), MCF-7 cells (1-2×10^5 cells/60 mm dish) were treated with taxol (2 μM), adriamycin (100 nM), 50 or 300 J/m^2 UVB irradiation and cultured for 0, 8, 16, 24 or 36 h at 37° C. Cells were fixed in 70% ethanol, labeled with MPM-2 antibody (6 μg/ml) followed by addition of goat anti-mouse FITC (Boehringer Mannheim) for 1 h at 22° C. in the presence of 5 μg/ml propidium iodide (PI) containing 50 μg/ml RNase A. Samples were analyzed on a FACScan (Becton Dickinson, Mountain View, Calif.), using CellQuest software.
MPM-2 Mitotic Phosphoepitope Expression: For detection of mitotic phosphoproteins (D. D. Vandre et al. (1989) J. Cell Sci. 94: 245-258), MCF-7 cells (1-2×10^5 cells/60 mm dish) were treated with taxol (0.2 μM), or vincristine (100 nM) for increasing time intervals (8-36 h) at 37° C. Cells were fixed in 70% ethanol, labeled with MPM-2 antibody (6 μg/ml; Upstate Biotechnology, Lake Placid, N.Y.) followed by addition of goat anti-mouse FITC (Boehringer Mannheim) for 1 h at 22° C. in the presence of 5 μg/ml propidium iodide containing 50 μg/ml RNAse A. Samples were analyzed on a FACScan (Becton Dickinson, Mountain View, Calif.), using CellQuest software. Data are expressed as %MPM-2 positive cells in the entire population.

[5] = genistein 25 μM or TNF a 5 ng/ml, 48 h

O=c1[nH]cc(F)c(=O)[nH]1 [5-FU, 5-Fluorouracil]
enhancement of apoptosis vs single agent treatment (HeLa cells; taxol 0.2 μM 16 h then adriamycin 100 nM or 5-Fluorouracil 500 μM): did not result in enhanced apoptosis

COC(=O)C[C@H](NC(=O)[C@H](C)NC(=O)[C@@H](NC(=O)OCc1ccccc1)C(C)C)C(=O)CF [Z-VAD-fink, Z-VAD-fmk] (Cbz-Val-Ala-Asp(OMe)-CH2F)
effect on flavopiridol-induced apoptosis (HeLa cells; preincubation with caspase inhibitor): suppressed flavopiridol-induced apoptosis

Cc1c2oc3c(C)ccc(C(=O)N[C@@H]4C(=O)N[C@H](C(C)C)C(=O)N5CCC[C@H]5C(=O)N(C)CC(=O)N(C)[C@@H](C(C)C)C(=O)O[C@@H]4C)c3nc-2c(C(=O)N[C@@H]2C(=O)N[C@H](C(C)C)C(=O)N3CCC[C@H]3C(=O)N(C)CC(=O)N(C)[C@@H](C(C)C)C(=O)O[C@@H]2C)c(N)c1=O [actinomycin D] (I: T[dV]P[Sar][NMeV] / II: T[dV]P[Sar][NMeV]; ester I:1-I:C, II:1-II:C; linker I:N-II:N via Actinocin(9to1))
effect on the increase in survivin expression mediated by adriamycin, taxol or 50 J/m^2 UVB [1]: significantly inhibited the increase in survivin expression

O=C1Cc2c([nH]c3ccc([N+](=O)[O-])cc23)-c2ccccc2N1 [alsterpaullone]
MPM-2 mitotic phosphoepitope expression ([2]; taxol 0.2 μM 16 h then Cdk inhibitor for 16 h (Purvalanol A 10 μM, alsterpaullone 20 μM, flavopiridol 250 nM, olomoucine 400 μM)): partially inhibited MPM-2 expression | MPM-2 mitotic phosphoepitope expression ([2]; taxol 0.2 μM 16 h then Cdk inhibitor for 32 h): suppressed mitotic phosphoprotein expression

N.N.[Cl][Pt][Cl] [cis-platin]
apoptosis (MCF-7 cells): negligible apoptosis | cell cycle arrest (MCF-7 cells): G2/M arrest | effect on survivin levels ([1]; cis-platin 3 μM): did not affect survivin levels | increased expression of survivin, compared with taxol ([1]; cisplatin 3 μM): less effective

C[C@@H]1C[C@@H]([C@H](O)CC2CC(=O)NC(=O)C2)C(=O)[C@@H](C)C1 [cycloheximide]
effect on the increase in survivin expression mediated by adriamycin, taxol or 50 J/m^2 UVB [1]: significantly inhibited the increase in survivin expression

O=c1c(-c2ccc(O)cc2)coc2cc(O)cc(O)c12 [genistein]
survivin expression [3, 5]: did not affect survivin expression

CC[C@]1(O)C[C@H]2CN(CCc3c([nH]c4ccccc34)[C@@](C(=O)OC)(c3cc4c(cc3OC)N(C=O)[C@H]3[C@@](O)(C(=O)OC)[C@H](OC(C)=O)[C@]5(CC)C=CCN6CC[C@]43[C@@H]65)C2)C1 [vincristine]
cell cycle arrest (HeLa cells; vincristine 100 nM): sustained mitotic (prometaphase) arrest | survivin expression ([3]; vincristine 100 nM): increased survivin expression | cdc2 kinase activity [4]: induces cdc2 kinase activity | p34^cdc2 kinase activity ([2]; vincristine 100 nM): elevated p34^cdc2 kinase activity

TNF a
survivin expression [3, 5]: did not affect survivin expression
